Measured values as given in US6603023B2 (priority 1996, dated 2003).
pIC50: −log10 of the molar value. Like-named read-outs stand apart in the source and are kept apart here. Marks after values point to notes of the source that are not given here. Starred links: 1 amine or outer side, 2 acyl side, 3 side chain; linkers in the order of their positions; H or OH if unused. Positions of bridges follow the written chain, without caps; N, C: chain ends. Non-standard residues stand in square brackets, D forms with d. Residues, ends and D or L forms follow the SMILES beside them. Chains are numbered I, II in the order given. Actinocin(9to1) = Cc1c2oc3c(C)ccc(C(=O)[*:1])c3nc-2c(C(=O)[*:2])c(N)c1=O; NMeV = CN[C@H](C(=O)O)C(C)C; Sar = CNCC(=O)O

Assays:
CCRF-CEM/Taxol® = experiment: cells; type: cell-based, human; settings: for pIC50: XTT, 72 h, read-out: IC50
Summary of the method: (§1)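 Suspension leukemic cells (CCRF-CEM, P388 and drug-resistant sublines kept under the selecting agent) were seeded at 5×10^4 cells/mL in RPMI-1640 with 10% FBS at 37 °C. After 72 h drug exposure in duplicate, PMS-XTT was added for 4 h. Absorbance was read at 450 and 630 nm.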

CCRF-CEM/VBL100 = experiment: cells; type: cell-based, human; settings: for (B)/(A) IC50 ratio: CCRF-CEM/VBL100 vs CCRF-CEM
Summary of the method: as §1

CCRF-CEM/VM1 = experiment: cells; type: cell-based, human; settings: for (D)/(A) IC50 ratio: CCRF-CEM/VM1 vs CCRF-CEM
Summary of the method: as §1

MCF-7/Adr = experiment: cells; type: cell-based, human; settings: Table 1C; for folds of resistance (IC50 ratio vs parent cell line): MCF-7/Adr vs MCF-7; for pIC50: SRB, 72 h, read-out: IC50
Method: Cultures were fixed with trichloroacetic acid and then stained for 30 min with 0.4% suforhodamine B dissolved in 1% acetic acid. Unbound dye was removed by acetic acid washes, and the protein-bound dye was extracted with an unbuffered Tris base (tris(hydroxy-methyl)aminomethane) for determination of absorbance at 570 nm in a 96-well microtiter plate reader. The experiments were carried out in duplicate. Each run entailed six to seven concentrations of the tested drugs.

SK-N-FI = experiment: cells; type: cell-based, human; settings: Table 1C; for folds of resistance (IC50 ratio vs parent cell line): SK-N-FI vs SK-N-As; for pIC50: SRB, 72 h, read-out: IC50
Method: (§2) The drug-resistant cell lines were continuously cultured in the presence of the selecting agent, AD, DX, VBL or VM to maintain the drug resistant phenotypes. […] All cells were cultured in RPMI 1640-10% FBS at 37° C. 5% CO2 (see below).
(§3) The cytotoxicity of the drug toward the monolayer cell cultures (such as DC-3F, MCF-7, SK-N-As and sublines) was determined in 96-well microtiter plates by the SRB method as described by Skehan and co-workers (Skehan, P., et al., J. Natl. Cancer Inst. 1990, 82, 1107-1112) for measuring the cellular protein content. Cultures were fixed with trichloroacetic acid and then stained for 30 min with 0.4% suforhodamine B dissolved in 1% acetic acid. Unbound dye was removed by acetic acid washes, and the protein-bound dye was extracted with an unbuffered Tris base (tris(hydroxy-methyl)aminomethane) for determination of absorbance at 570 nm in a 96-well microtiter plate reader. The experiments were carried out in duplicate. Each run entailed six to seven concentrations of the tested drugs. Data were analyzed with the median-effect plot (Chou, T.-C. & Talalay, P. T. (1984) Adv. Enzyme Regul. 22, 27-55) using a previously described computer program (Chou, J., & Chou T.-C. 1987, Dose-effect analysis with microcomputers: Quantitation of ED50, synergism, antagonism, low-dose risk, reception-ligand binding and enzyme kinetics, IBM-PC software and manual, Biosoft, Cambridge, U.K.).

MCF-7 = experiment: SRB cytotoxicity, MCF-7; type: cell-based, human; settings: Table 1C; SRB, 72 h; read-out: IC50
Method: as §3

[1] = system: human neuroblastoma SK-N-As; experiment: SRB cytotoxicity, SK-N-As; type: cell-based; settings: Table 1C; SRB, 72 h; read-out: IC50
Method: (§4) The DC-3F hamster lung fibroblast cell line and its actinomycin D-selected sublines (DC-3F/ADII and DC-3F/ADX) were obtained from the Memorial Sloan-Kettering Cancer Center (MSKCC).
as §2, §3

DC-3F/ADII = experiment: SRB cytotoxicity, DC-3F/ADII; type: cell-based, hamster; settings: Table 3; read-out: IC50
Method: as §4, §2, §3
(§5) Concerning Table 3, experiments were carried out using the cell lines DC-3F (parent hamster lung cells), DC-3F/ADII (moderate multidrug-resistant (MDR) cells) and DC-3F/ADX (very strong MDR cells).

[2] = system: CCRF-CEM human T-cell acute lymphoblastic leukemia cell line; experiment: XTT cytotoxicity (cell growth inhibition), CCRF-CEM
Summary of the method: as §1

[3] = system: DC-3F hamster lung fibroblast cell line; experiment: SRB cytotoxicity, DC-3F; type: cell-based; settings: read-out: IC50
Method: as §4, §2, §3

P388/Adr = experiment: cells; type: cell-based, murine; settings: Table 1C; for folds of resistance (IC50 ratio vs parent cell line): P388/Adr vs P388/O; for pIC50: XTT, 72 h, read-out: IC50
Method: as §2
(§6) The cells were cultured at an initial density of 5×10^4 cells/mL. They were maintained in a 5% CO2-humidified atmosphere at 37° C. in RPMI-1640 medium (GIBCO-BRL, Gaithersburg, Md.) containing penicillin (100 U/mL), streptomycin ([…]) (GIBCO-BRL) and 10% heat inactivate fetal bovine serum. Culture for cell suspension (such as for CCRF-CEM, P388 and sublines), were performed by the XTT-microculture tetrazonium method (Scudiero, D. A. et al., Cancer Res. 1988, 48, 4827-4833) in duplicate in 96-well microtiter plates.
(§7) 2′,3′-Bis(methoxy-4-nitro-5-sufophenyl)-5-[(phenylamino)carbonyl]2H-tetrazolium hyudroxide (XTT) was prepared at 1 mg/mL in prewarmed (37° C.) medium without serum. Phenazine methosulfate (PMS) and fresh XTT were mixed together to obtain 0.025 mM PMS-XTT solution (25 μL of the stock 5 mM PMS was added per 5 mL of 1 mg/mL XTT). Following a 72 h incubation, 50 μL of the assay aliquots were added to each well of the cell culture. After incubation at 37° C. for 4 h, absorbance at 450 nm and 630 nm was measured with a microplate reader (EL340, Bio-Tek Instruments, Inc., Winooski, Vt.).

murine leukemic P388/0 = experiment: XTT cytotoxicity, P388/0; type: cell-based; settings: Table 1C; XTT, 72 h; read-out: IC50
Method: as §4, §2, §6, §7

DC-3F/ADX = experiment: cells; type: cell-based, hamster; settings: for folds of resistance (IC50 ratio vs parent cell line): DC-3F/ADX vs DC-3F; for pIC50: read-out: IC50
Method: as §4, §2, §3, §5

[4] = ester bond
[5] = Table 1A, XTT, 72 h, read-out: IC50
[6] = Table 6, single determinations, read-out: IC50

Row | SMILES | pIC50 (CCRF-CEM/Taxol®; Table 1A) | (B)/(A) IC50 ratio (CCRF-CEM/VBL100; Table 1A) | pIC50 (CCRF-CEM/VBL100; [5]) | (D)/(A) IC50 ratio (CCRF-CEM/VM1; Table 1A) | pIC50 (CCRF-CEM/VM1; [5]) | folds of resistance (IC50 ratio vs parent cell line) (MCF-7/Adr) | pIC50 (MCF-7/Adr) | folds of resistance (IC50 ratio vs parent cell line) (SK-N-FI) | pIC50 (SK-N-FI) | pIC50 (MCF-7) | pIC50 [1] | pIC50 (DC-3F/ADII) | pIC50 ([2]; Table 1A, XTT, 72 h) | pIC50 ([3]; Table 1C, SRB, 72 h) | pIC50 ([3]; Table 3) | folds of resistance (IC50 ratio vs parent cell line) (P388/Adr) | pIC50 (P388/Adr) | pIC50 (murine leukemic P388/0) | folds of resistance (IC50 ratio vs parent cell line) (DC-3F/ADX; Table 1C) | pIC50 (DC-3F/ADX; Table 1C, SRB, 72 h) | other results
1 | Cc1c2oc3c(C)ccc(C(=O)N[C@@H]4C(=O)N[C@H](C(C)C)C(=O)N5CCC[C@H]5C(=O)N(C)CC(=O)N(C)[C@@H](C(C)C)C(=O)O[C@@H]4C)c3nc-2c(C(=O)N[C@@H]2C(=O)N[C@H](C(C)C)C(=O)N3CCC[C@H]3C(=O)N(C)CC(=O)N(C)[C@@H](C(C)C)C(=O)O[C@@H]2C)c(N)c1=O [Actinomycin D, actinomycin D] (I: T[dV]P[Sar][NMeV] / II: T[dV]P[Sar][NMeV]; ester I:1-I:C, II:1-II:C; linker I:N-II:N via Actinocin(9to1)) | 8.89 | 109 | 7.42 | 0.8 | 9.57 | (2.5x) | 8.78 | (14x) | 7.92 | 9.17 | 9.07 | 8.09 | 9.46 | 9.36 | 10.24 | (8x) | 8.92 | 9.82 | (13000x) | 6.24 | (C)/(A) IC50 ratio (CCRF-CEM/Taxol®): 3.7; pIC50 ([3]; Table 3, value in parentheses): 10.24; fold resistance vs parent DC-3F (DC-3F/ADX; DC-3F/ADX cells, listed as AD): 13,000 fold; pIC50 (DC-3F/ADX; Table 3): 6.31
2 | C/C(=C\c1csc(C)n1)[C@@H]1C/C=C\CCCC[C@H](O[Si](C)(C)C(C)(C)C)[C@@H](C)C(=O)C(C)(C)[C@@H](O[Si](C)(C)C(C)(C)C)CC(=O)O1 | – | – | – | – | – | – | – | – | – | – | – | – | – | – | – | – | – | – | – | – | ring closure, yield of all isomers ([4]; from C/C(=C\c1csc(C)n1)[C@@H](O)C/C=C\CCCC[C@H](O[Si](C)(C)C(C)(C)C)[C@@H](C)C(=O)C(C)(C)[C@H](CC(=O)O)O[Si](C)(C)C(C)(C)C, DCC/DMAP/DMAP.HCl, CHCl3, 0.32 mM, 80.0 °C, 20.0 h): 75%
3 | C/C(=C\c1csc(C)n1)[C@@H]1C/C=C\CCC[C@H](C)[C@H](O)[C@@H](C)C(=O)C(C)(C)[C@@H](O)CC(=O)O1 [Desoxyepothilone A, desoxyepothilone A] | 7.82 | 0.55 | 7.92 | 0.59 | 7.89 | (4.5x) | 6.84 | (3.1x) | 6.65 | 7.49 | 7.14 | 7.70 | 7.66 | 7.96 | 7.97 | (0.59x) | 7.90 | 7.67 | (3.9x) | 7.38 | (C)/(A) IC50 ratio (CCRF-CEM/Taxol®; Table 1A, CCRF-CEM/Taxol vs CCRF-CEM): 0.7; pIC50 (CCRF-CEM/VBL100; Table 1, XTT, read-out: IC50): 7.92; pIC50 (CCRF-CEM/VBL100; Table 2, CCRF-CEM/VLB, read-out: IC50): 7.92; (B)/(A) ratio (fold resistance >1, collateral sensitivity <1) (CCRF-CEM/VBL100; Table 2A): (0.55)^b; pIC50 (CCRF-CEM/VBL100; Table 2A, MDR cell line, read-out: IC50 (B)): 7.92; pIC50 (CCRF-CEM/VBL100; [6]): 7.92; pIC50 (CCRF-CEM/VBL100; Table 7, CEM/VBL, read-out: IC50): 7.92; pIC50 (CCRF-CEM/VBL100; read-out: IC50): 7.92; pIC50 (CCRF-CEM/VM1; Table 1, XTT, read-out: IC50): 7.89; pIC50 (CCRF-CEM/VM1; Table 2, CCR-CEM/VM-1, read-out: IC50): 7.89; (C)/(A) ratio (fold resistance >1, collateral sensitivity <1) (CCRF-CEM/VM1; Table 2A): (0.59)^b; pIC50 (CCRF-CEM/VM1; Table 2A, Topo II gene mutated cell line, read-out: IC50 (C)): 7.89; pIC50 (CCRF-CEM/VM1; [6]): 7.89; pIC50 [2]: 7.66; pIC50 ([2]; Table 1, XTT): 7.66; pIC50 ([2]; Table 2): 8.70; pIC50 ([2]; Table 6, single determinations): 7.66; pIC50 ([2]; Table 7, CEM): 7.66; pIC50 ([2]; read-out: IC50 (A), Table 2A, parent cell line): 7.66; pIC50 (DC-3F/ADX; Table 3): 7.38
4 | CC[Si](CC)(CC)O[C@H]1CC(=O)O[C@H](/C(C)=C/c2csc(C)n2)C/C=C(/C)CCC[C@H](C)[C@H](OC(=O)OCC(Cl)(Cl)Cl)[C@@H](C)C(=O)C1(C)C | – | – | – | – | – | – | – | – | – | – | – | – | – | – | – | – | – | – | – | – | ring closure, yield of all isomers ([4]; from CC[Si](CC)(CC)O[C@@H](CC(=O)O)C(C)(C)C(=O)[C@H](C)[C@@H](OC(=O)OCC(Cl)(Cl)Cl)[C@@H](C)CCC/C(C)=C\C[C@H](O)/C(C)=C/c1csc(C)n1, 2,4,6-trichlorobenzoyl chloride / Et3N / DMAP, toluene, 0.79 mM, 25.0 °C, 3.5 h): 78%; ring closure, yield of all isomers ([4]; from CC[Si](CC)(CC)O[C@@H](CC(=O)O)C(C)(C)C(=O)[C@H](C)[C@@H](OC(=O)OCC(Cl)(Cl)Cl)[C@@H](C)CCC/C(C)=C\C[C@H](O)/C(C)=C/c1csc(C)n1, 2,4,6-trichlorobenzoyl chloride/Et3N/DMAP, toluene, 1.32 mM, 25.0 °C, 3.75 h): 78%
